Literature values, collected in patent US9206171B2, “6-{2 -[1-(6-methyl-3-pyridazinyl)-4-piperidinyl]ethoxy}-3-ethoxy-1,2-benzisoxazole bis-dihydrogenphosphate salt (1:2)” (Biota Scientific Management Pty Ltd, priority 2008, dated 2015).

Legend:
[1] = facile endogenous cleavage of the ester moiety, regardless of excipient
[2] = patients using oral contraceptive formulations

bioavailability (in words) [1] | aqueous solubility (in words) | Structure (SMILES) | interaction with oral contraceptive formulations [2]
poor bioavailability | poor aqueous solubility | CCOC(=O)c1ccc(OCCC2CCN(c3ccc(C)nn3)CC2)cc1 [Pirodavir, 4-[2-[1-(6-methyl-3-pyridazinyl)-4-piperidinyl]-ethoxy]benzoate] | 
 |  | Cc1cc(CCCOc2c(C)cc(-c3noc(C(F)(F)F)n3)cc2C)on1 [Pleconaril] | interact adversely
